Experimental data published in patent US10981879B2, “Thioether triazolopyridine and triazolopyrimidine inhibitors of myeloperoxidase” (BRISTOL-MYERS SQUIBB COMPANY, priority 2014, dated 2021).

Key:
Format in all cases: biochemical
[1] = biological target: T1, myeloperoxidase (MPO) (Homo sapiens (Human), UniProt P05164); test: MPO peroxidation assay (Amplex Red); settings: Table 1
Protocol: MPO peroxidation activity was measured in 100 mM KPi (pH 7.4) by utilizing the non-fluorescent reagent Amplex Red (Invitrogen catalog #A12222) which can be oxidized to the highly fluorescent resorufin. Amplex Red is oxidized by the peroxidase action of MPO to resorufin. Reactions were carried out in 50 μL total volume by adding a 25 μL mixture of 200 pM myeloperoxidase and 40 nM H2O2 (Sigma #349887) to 100 nL inhibitor in 100% DMSO in a 384 well Perkin Elmer Optiplate. Enzyme and compound were preincubated for ten minutes at rt.
After the ten minute preincubation, 25 μL of an Amplex Red mixture containing 200 μM Amplex Red and 10 mM H2O2 was added to the plate. Kinetic determinations were carried out immediately on a Perkin Elmer Envision (15 minute kinetic read, Ex: 535 nm, Em: 590 nm).
IC50 values were calculated by determining the slope of the linear portion of the kinetic trace (180-540 secs), and using that calculated slope to determine % inhibition occurring at each concentration of inhibitor using the following equation:
[formula] where A=minimal Y value (activity level of inhibited sample), B=maximal Y value (activity level of uninhibited sample), C=Log IC50, D=Hill Slope, x=concentration of inhibitor. MPO Chlorination Assay

[2] = biological target: T1, myeloperoxidase (MPO); test: MPO chlorination assay (APF); settings: MPO chlorination assay (APF), Table 1; read-out: APF IC50
Outline: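 Human MPO (200 pM) with 120 mM NaCl preincubated with inhibitor 10 minutes at rt in 100 mM KPi pH 7.4. Reaction started with APF mixture containing 10 μM H2O2; fluorescein fluorescence (ex 485/em 535 nm) read kinetically 3 minutes. IC50 from slopes of linear kinetic portion, fitted with a four-parameter Hill equation.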

[3] = biological target: eosinophil peroxidase (EPX) (Homo sapiens (Human), UniProt P11678); test: EPX bromination assay
Protocol: EPX bromination activity was measured in 100 mM KPi (pH 7.4) by monitoring the H2O2 catalyzed formation of 3-bromo tyrosine from tyrosine and potassium bromide. A 50 μl mixture of 0.6 μM EPX (Lee Biosolutions Cat #342-60) was added to 100 nL inhibitor in 100% DMSO in a 384 well REMP plate. Enzyme and compound were preincubated for ten minutes at rt.
After the ten minute preincubation of enzyme and inhibitor, 25 μL of a mixture containing 400 μM tyrosine and 1200 μM potassium bromide was added to the plate containing enzyme and inhibitor, followed by the addition of 25 μl of 20 μM H2O2. The reaction was allowed to proceed for 15 minutes, at which time it was quenched with 10 μL of 20% TCA. The final concentrations of all components were 0.3 μM EPX, 100 μM tyrosine, […], 5 μM H2O2, 0.1% DMSO, 2.0% TCA.
IC50 values were determined by determining the peak areas of 3-bromotyrosine present at the end of the 15 minute reaction and fitting the data to:
[formula] where A=minimal Y value (activity level of inhibited sample), B=maximal Y value (activity level of uninhibited sample), C=Log IC50, D=Hill Slope, x=concentration of inhibitor.
Reversed-phase analysis was performed on a Waters Acquity Ultra Performance LC system using an Acquity UPLC BEH C18 […], 2.1×50 mm analytical column. The column was maintained at 60° C. Samples were eluted using a gradient of 0%-100% B over 2.5 minutes, followed by equilibration with 100% A for 1 minute where A consisted of 0.1% TFA and B consisted of 90% MeOH/0.1% TFA at a flow rate of 0.6 mL/min. The retention time of 3-bromo tyrosine was 1.22 min.

T1 sequence (P05164 49-745): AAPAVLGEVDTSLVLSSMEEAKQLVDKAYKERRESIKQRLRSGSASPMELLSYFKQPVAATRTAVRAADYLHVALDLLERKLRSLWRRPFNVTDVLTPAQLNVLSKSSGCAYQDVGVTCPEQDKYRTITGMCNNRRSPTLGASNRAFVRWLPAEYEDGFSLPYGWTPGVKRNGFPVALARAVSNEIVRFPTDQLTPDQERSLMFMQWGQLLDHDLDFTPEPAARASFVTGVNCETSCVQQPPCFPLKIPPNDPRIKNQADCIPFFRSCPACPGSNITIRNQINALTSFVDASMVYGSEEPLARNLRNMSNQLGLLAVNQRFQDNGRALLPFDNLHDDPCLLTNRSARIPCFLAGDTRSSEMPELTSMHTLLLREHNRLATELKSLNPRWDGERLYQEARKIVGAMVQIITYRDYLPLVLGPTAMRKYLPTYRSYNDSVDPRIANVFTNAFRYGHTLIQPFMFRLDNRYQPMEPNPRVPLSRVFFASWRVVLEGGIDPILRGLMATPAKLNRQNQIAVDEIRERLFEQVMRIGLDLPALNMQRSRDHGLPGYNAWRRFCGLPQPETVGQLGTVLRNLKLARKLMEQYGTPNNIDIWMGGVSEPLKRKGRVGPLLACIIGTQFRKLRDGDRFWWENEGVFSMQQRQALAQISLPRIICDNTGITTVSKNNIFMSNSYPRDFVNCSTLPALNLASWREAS
Chain of eosinophil peroxidase (EPX) (P11678 251-715): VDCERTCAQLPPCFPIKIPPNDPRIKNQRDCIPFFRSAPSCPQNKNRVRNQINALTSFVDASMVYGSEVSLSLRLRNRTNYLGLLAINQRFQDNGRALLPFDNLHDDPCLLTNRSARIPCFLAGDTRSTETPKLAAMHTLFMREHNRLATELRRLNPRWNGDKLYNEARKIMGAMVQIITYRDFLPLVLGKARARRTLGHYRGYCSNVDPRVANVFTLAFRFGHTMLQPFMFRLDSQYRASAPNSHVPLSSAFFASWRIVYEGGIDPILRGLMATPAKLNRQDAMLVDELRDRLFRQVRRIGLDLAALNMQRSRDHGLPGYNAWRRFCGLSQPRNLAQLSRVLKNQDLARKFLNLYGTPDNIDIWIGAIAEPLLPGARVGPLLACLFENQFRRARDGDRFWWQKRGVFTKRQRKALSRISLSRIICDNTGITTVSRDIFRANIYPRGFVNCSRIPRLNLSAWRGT
Chain of eosinophil peroxidase (EPX) (P11678 140-250): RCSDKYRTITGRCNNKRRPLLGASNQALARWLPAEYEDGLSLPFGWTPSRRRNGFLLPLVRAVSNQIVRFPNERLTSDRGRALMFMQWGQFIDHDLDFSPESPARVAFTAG

IC50 [1]: 0.01 µM
IC50 [2]: 0.01 µM
IC50 [3]: 0.001 µM
SMILES: CC(Sc1cc(N)nc2[nH]nnc12)c1ccccc1 (stereo not drawn) [Example 2, 7-((1-phenylethyl)thio)-3H-[1,2,3]triazolo[4,5-b]pyridin-5-amine]
